Assay results as given in the supplement of paper PMC8976852.
± gives the standard deviation of the averaged measurements.

How the values were obtained:
Assay in all cases: activity (1 - area under the dose-response curve within the screened range) (fraction); higher = more sensitive
Conditions in all cases: treatment time: 72 h
[1] = system: HCM-SANG-0266-C20 (colorectal cancer organoid)
How it was run: (§1)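 Patient-derived organoids from colorectal and oesophageal cancers were kept in 5% or 80% ECM (BME-2), then plated onto an ECM layer in 384-well plates and exposed for 3 days to a 7-point half-log dilution series, in technical triplicate and biological duplicate. A non-linear mixed effects model was used to fit dose-response curves, and any fit with an RMSE above 0.3 was rejected. Activity was taken as the complement of the area under the fitted curve across the screened dose range.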

[2] = system: HCM-SANG-0270-C20 (colorectal cancer organoid)
How it was run: as §1

[3] = system: HCM-SANG-0291-C15 (oesophageal cancer organoid)
How it was run: as §1

[4] = system: HCM-SANG-0532-C20 (colorectal cancer organoid)
How it was run: as §1

[5] = ECM percentage in culture prior to screening 5 %
[6] = ECM percentage in culture prior to screening 80 %

Cn1c(=O)n(-c2ccc(C(C)(C)C#N)cc2)c2c3cc(-c4cnc5ccccc5c4)ccc3ncc21 [Dactolisib]
activity [1, 5]: 0.254 ± 0.077
activity [1, 6]: 0.239 ± 0.092
activity [2, 5]: 0.123 ± 0.039
activity [2, 6]: 0.0768 ± 0.059
activity [3, 5]: 0.101 ± 0.035
activity [3, 6]: 0.0783 ± 0.027
activity [4, 5]: 0.193 ± 0.058
activity [4, 6]: 0.257 ± 0.025

CC(=O)c1c(C)c2cnc(Nc3ccc(N4CCNCC4)cn3)nc2n(C2CCCC2)c1=O [Palbociclib]
activity [1, 5]: 0.0791 ± 0.052
activity [1, 6]: 0.0779 ± 0.05
activity [2, 5]: 0.0934 ± 0.03
activity [2, 6]: 0.0559 ± 0.031
activity [3, 5]: 0.0779 ± 0.033
activity [3, 6]: 0.0409 ± 0.013
activity [4, 5]: 0.0593 ± 0.019
activity [4, 6]: 0.102 ± 0.034

Cc1cc([C@@H](C)Nc2ccccc2C(=O)O)c2nc(N3CCOCC3)cc(=O)n2c1 [AZD6482]
activity [1, 5]: 0.042 ± 0.03
activity [1, 6]: 0.0421 ± 0.017
activity [2, 5]: 0.0274 ± 0.021
activity [2, 6]: 0.0245 ± 0.008
activity [3, 5]: 0.0199 ± 0.0028
activity [3, 6]: 0.0269 ± 0.0093
activity [4, 5]: 0.0367 ± 0.021
activity [4, 6]: 0.0291 ± 0.011

Cn1cc(C2=C(c3ccc(Cl)cc3Cl)C(=O)NC2=O)c2ccccc21
activity [1, 5]: 0.0916 ± 0.037
activity [1, 6]: 0.0697 ± 0.056
activity [2, 5]: 0.0629 ± 0.02
activity [2, 6]: 0.0482 ± 0.021
activity [3, 5]: 0.0549 ± 0.019
activity [3, 6]: 0.0522 ± 0.022
activity [4, 5]: 0.0778 ± 0.033
activity [4, 6]: 0.0951 ± 0.05

CN(C)CCCOc1ccc(-c2ccc3ncc4c(c3c2)n(C2CCOCC2)c(=O)n4C)cn1 [AZD0156]
activity [1, 5]: 0.0443 ± 0.024
activity [1, 6]: 0.0475 ± 0.024
activity [2, 5]: 0.0254 ± 0.013
activity [2, 6]: 0.0244 ± 0.0078
activity [3, 5]: 0.0259 ± 0.013
activity [3, 6]: 0.0316 ± 0.022
activity [4, 5]: 0.0433 ± 0.022
activity [4, 6]: 0.0427 ± 0.017

C[C@]12CC[C@@H]3c4ccc(O)cc4C[C@@H](CCCCCCCCC[S+]([O-])CCCC(F)(F)C(F)(F)F)[C@H]3[C@@H]1CC[C@@H]2O (some centres not stated) [Fulvestrant]
activity [1, 5]: 0.0414 ± 0.019
activity [1, 6]: 0.0246 ± 0.0074
activity [2, 5]: 0.0292 ± 0.0081
activity [2, 6]: 0.0268 ± 0.015
activity [3, 5]: 0.0285 ± 0.013
activity [3, 6]: 0.0212 ± 0.0031
activity [4, 5]: 0.022 ± 0.0021
activity [4, 6]: 0.0273 ± 0.0072

COc1cc2nccc(Oc3ccc(NC(=O)Nc4cc(C)on4)c(Cl)c3)c2cc1OC [Tivozanib]
activity [1, 5]: 0.0203 ± 0.0013
activity [1, 6]: 0.0214 ± 0.0013
activity [2, 5]: 0.0217 ± 0.0076
activity [2, 6]: 0.0262 ± 0.01
activity [3, 5]: 0.0202 ± 0.0045
activity [3, 6]: 0.0228 ± 0.0062
activity [4, 5]: 0.0321 ± 0.016
activity [4, 6]: 0.0237 ± 0.0055

Cc1cc(Nc2cc(N3CCN(C)CC3)nc(Sc3ccc(NC(=O)C4CC4)cc3)n2)n[nH]1 [Tozasertib]
activity [1, 5]: 0.222 ± 0.09
activity [1, 6]: 0.228 ± 0.033
activity [2, 5]: 0.0983 ± 0.062
activity [2, 6]: 0.0668 ± 0.034
activity [3, 5]: 0.0578 ± 0.037
activity [3, 6]: 0.0466 ± 0.014
activity [4, 5]: 0.16 ± 0.076
activity [4, 6]: 0.123 ± 0.046

C[C@@H](Oc1cc(-c2cnn(C3CCNCC3)c2)cnc1N)c1c(Cl)ccc(F)c1Cl [Crizotinib]
activity [1, 5]: 0.144 ± 0.035
activity [1, 6]: 0.0852 ± 0.034
activity [2, 5]: 0.0695 ± 0.034
activity [2, 6]: 0.0648 ± 0.056
activity [3, 5]: 0.0562 ± 0.022
activity [3, 6]: 0.065 ± 0.022
activity [4, 5]: 0.101 ± 0.068
activity [4, 6]: 0.154 ± 0.04

CNC(=O)c1cc(Oc2ccc(NC(=O)Nc3ccc(Cl)c(C(F)(F)F)c3)cc2)ccn1 [Sorafenib]
activity [1, 5]: 0.122 ± 0.014
activity [1, 6]: 0.106 ± 0.013
activity [2, 5]: 0.0957 ± 0.011
activity [2, 6]: 0.102 ± 0.068
activity [3, 5]: 0.0375 ± 0.016
activity [3, 6]: 0.0266 ± 0.009
activity [4, 5]: 0.0823 ± 0.0072
activity [4, 6]: 0.123 ± 0.033

CN(C)C(=O)c1cc2cnc(Nc3ccc(N4CCNCC4)cn3)nc2n1C1CCCC1 [Ribociclib]
activity [1, 5]: 0.0335 ± 0.011
activity [1, 6]: 0.0512 ± 0.053
activity [2, 5]: 0.046 ± 0.028
activity [2, 6]: 0.0291 ± 0.019
activity [3, 5]: 0.0289 ± 0.0084
activity [3, 6]: 0.0323 ± 0.016
activity [4, 5]: 0.0436 ± 0.036
activity [4, 6]: 0.0301 ± 0.0069

Nc1ccn([C@@H]2O[C@H](CO)[C@@H](O)C2(F)F)c(=O)n1 [Gemcitabine]
activity [1, 5]: 0.624 ± 0.097
activity [1, 6]: 0.465 ± 0.13
activity [2, 5]: 0.337 ± 0.13
activity [2, 6]: 0.234 ± 0.17
activity [3, 5]: 0.813 ± 0.021
activity [3, 6]: 0.801 ± 0.049
activity [4, 5]: 0.247 ± 0.042
activity [4, 6]: 0.423 ± 0.04

CN(C)C/C=C/C(=O)Nc1cc2c(Nc3ccc(F)c(Cl)c3)ncnc2cc1O[C@H]1CCOC1 [Afatinib]
activity [1, 5]: 0.308 ± 0.13
activity [1, 6]: 0.217 ± 0.11
activity [2, 5]: 0.311 ± 0.11
activity [2, 6]: 0.153 ± 0.13
activity [3, 5]: 0.414 ± 0.064
activity [3, 6]: 0.316 ± 0.06
activity [4, 5]: 0.171 ± 0.1
activity [4, 6]: 0.243 ± 0.07

COc1cc(Nc2ncc3c(n2)-c2ccc(Cl)cc2C(c2c(F)cccc2OC)=NC3)ccc1C(=O)O [Alisertib]
activity [1, 5]: 0.266 ± 0.08
activity [1, 6]: 0.31 ± 0.081
activity [2, 5]: 0.104 ± 0.078
activity [2, 6]: 0.124 ± 0.06
activity [3, 5]: 0.0593 ± 0.019
activity [3, 6]: 0.0714 ± 0.026
activity [4, 5]: 0.185 ± 0.063
activity [4, 6]: 0.148 ± 0.027

CCC1=C[C@@H]2CN(C1)Cc1c([nH]c3ccccc13)[C@@](C(=O)OC)(c1cc3c(cc1OC)N(C)[C@H]1[C@@](O)(C(=O)OC)[C@H](OC(C)=O)[C@]4(CC)C=CCN5CC[C@]31[C@@H]54)C2 [Vinorelbine]
activity [1, 5]: 0.153 ± 0.031
activity [1, 6]: 0.153 ± 0.039
activity [2, 5]: 0.0834 ± 0.05
activity [2, 6]: 0.095 ± 0.046
activity [3, 5]: 0.0831 ± 0.009
activity [3, 6]: 0.107 ± 0.024
activity [4, 5]: 0.0815 ± 0.04
activity [4, 6]: 0.107 ± 0.011

C#Cc1cccc(Nc2ncnc3cc(OCCOC)c(OCCOC)cc23)c1 [Erlotinib]
activity [1, 5]: 0.171 ± 0.037
activity [1, 6]: 0.129 ± 0.053
activity [2, 5]: 0.148 ± 0.1
activity [2, 6]: 0.121 ± 0.086
activity [3, 5]: 0.204 ± 0.026
activity [3, 6]: 0.198 ± 0.033
activity [4, 5]: 0.207 ± 0.091
activity [4, 6]: 0.209 ± 0.06

O=C(O)C(=O)O.[NH-][C@@H]1CCCC[C@H]1[NH-].[Pt+2] [Oxaliplatin]
activity [1, 5]: 0.0673 ± 0.036
activity [1, 6]: 0.0486 ± 0.022
activity [2, 5]: 0.0594 ± 0.018
activity [2, 6]: 0.0493 ± 0.038
activity [3, 5]: 0.0391 ± 0.022
activity [3, 6]: 0.0459 ± 0.025
activity [4, 5]: 0.0448 ± 0.016
activity [4, 6]: 0.0692 ± 0.031

Cc1nc(NC(=O)N2CCC[C@H]2C(N)=O)sc1-c1ccnc(C(C)(C)C(F)(F)F)c1 [Alpelisib]
activity [1, 5]: 0.13 ± 0.052
activity [1, 6]: 0.0656 ± 0.019
activity [2, 5]: 0.036 ± 0.027
activity [2, 6]: 0.0216 ± 0.0057
activity [3, 5]: 0.0264 ± 0.0063
activity [3, 6]: 0.0261 ± 0.011
activity [4, 5]: 0.0918 ± 0.087
activity [4, 6]: 0.0904 ± 0.033

COc1ccc(C2=N[C@@H](c3ccc(Cl)cc3)[C@@H](c3ccc(Cl)cc3)N2C(=O)N2CCNC(=O)C2)c(OC(C)C)c1 [Nutlin-3a (-)]
activity [1, 5]: 0.218 ± 0.046
activity [1, 6]: 0.193 ± 0.064
activity [2, 5]: 0.161 ± 0.034
activity [2, 6]: 0.0722 ± 0.033
activity [3, 5]: 0.0424 ± 0.021
activity [3, 6]: 0.0359 ± 0.015
activity [4, 5]: 0.148 ± 0.039
activity [4, 6]: 0.203 ± 0.054
